Test results as given in article PMC7552917, “Systematic exploration of different E3 ubiquitin ligases: an approach towards potent and selective CDK6 degraders” (Chemical Science, 2020).
Read-outs that look alike come from different tables or passages of the source.

What was measured:
[1] = target: T1, IKZF1 (Homo sapiens, UniProt Q13422+Q96SW2); test: Neosubstrate IKZF1 degradation, western blot of MM.1S cells; format: cell-based; conditions: 16 h, normalized to DMSO (100%); for remaining activity at 0.1 µM: MM1.S, read-out: D IKZF1: remaining IKZF1 levels;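 on all read-outs here: test concentration 0.1 µM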
T1 construct: endogenous in cells; host or cells: MM.1S (human multiple myeloma)
T1 sequence (Q13422 whole entry): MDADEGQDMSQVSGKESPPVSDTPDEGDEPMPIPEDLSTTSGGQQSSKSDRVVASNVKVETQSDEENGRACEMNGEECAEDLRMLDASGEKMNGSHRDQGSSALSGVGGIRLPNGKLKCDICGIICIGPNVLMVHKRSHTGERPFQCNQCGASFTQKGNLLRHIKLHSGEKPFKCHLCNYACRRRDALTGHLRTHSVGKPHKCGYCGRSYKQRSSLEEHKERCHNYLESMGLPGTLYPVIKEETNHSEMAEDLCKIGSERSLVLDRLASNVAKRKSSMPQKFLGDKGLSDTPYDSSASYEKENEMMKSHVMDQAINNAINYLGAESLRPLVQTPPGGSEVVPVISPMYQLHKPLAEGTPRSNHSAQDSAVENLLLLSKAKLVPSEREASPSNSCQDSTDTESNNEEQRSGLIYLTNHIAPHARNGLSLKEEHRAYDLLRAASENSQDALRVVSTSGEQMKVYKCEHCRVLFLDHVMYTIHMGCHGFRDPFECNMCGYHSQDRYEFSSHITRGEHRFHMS
T1 sequence (Q96SW2 whole entry): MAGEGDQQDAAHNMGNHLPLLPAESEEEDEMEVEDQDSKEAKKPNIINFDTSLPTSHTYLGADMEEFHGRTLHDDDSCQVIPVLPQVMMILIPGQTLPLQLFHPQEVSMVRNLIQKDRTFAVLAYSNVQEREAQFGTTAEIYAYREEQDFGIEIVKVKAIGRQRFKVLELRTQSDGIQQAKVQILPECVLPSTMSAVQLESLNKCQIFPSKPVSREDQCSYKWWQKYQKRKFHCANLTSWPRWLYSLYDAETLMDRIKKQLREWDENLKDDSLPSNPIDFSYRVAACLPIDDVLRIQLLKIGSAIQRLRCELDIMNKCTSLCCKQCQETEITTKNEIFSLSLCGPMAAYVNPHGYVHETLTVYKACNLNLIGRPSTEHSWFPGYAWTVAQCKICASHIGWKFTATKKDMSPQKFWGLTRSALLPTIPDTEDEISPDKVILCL
T1 sequence (Q16531 whole entry partner): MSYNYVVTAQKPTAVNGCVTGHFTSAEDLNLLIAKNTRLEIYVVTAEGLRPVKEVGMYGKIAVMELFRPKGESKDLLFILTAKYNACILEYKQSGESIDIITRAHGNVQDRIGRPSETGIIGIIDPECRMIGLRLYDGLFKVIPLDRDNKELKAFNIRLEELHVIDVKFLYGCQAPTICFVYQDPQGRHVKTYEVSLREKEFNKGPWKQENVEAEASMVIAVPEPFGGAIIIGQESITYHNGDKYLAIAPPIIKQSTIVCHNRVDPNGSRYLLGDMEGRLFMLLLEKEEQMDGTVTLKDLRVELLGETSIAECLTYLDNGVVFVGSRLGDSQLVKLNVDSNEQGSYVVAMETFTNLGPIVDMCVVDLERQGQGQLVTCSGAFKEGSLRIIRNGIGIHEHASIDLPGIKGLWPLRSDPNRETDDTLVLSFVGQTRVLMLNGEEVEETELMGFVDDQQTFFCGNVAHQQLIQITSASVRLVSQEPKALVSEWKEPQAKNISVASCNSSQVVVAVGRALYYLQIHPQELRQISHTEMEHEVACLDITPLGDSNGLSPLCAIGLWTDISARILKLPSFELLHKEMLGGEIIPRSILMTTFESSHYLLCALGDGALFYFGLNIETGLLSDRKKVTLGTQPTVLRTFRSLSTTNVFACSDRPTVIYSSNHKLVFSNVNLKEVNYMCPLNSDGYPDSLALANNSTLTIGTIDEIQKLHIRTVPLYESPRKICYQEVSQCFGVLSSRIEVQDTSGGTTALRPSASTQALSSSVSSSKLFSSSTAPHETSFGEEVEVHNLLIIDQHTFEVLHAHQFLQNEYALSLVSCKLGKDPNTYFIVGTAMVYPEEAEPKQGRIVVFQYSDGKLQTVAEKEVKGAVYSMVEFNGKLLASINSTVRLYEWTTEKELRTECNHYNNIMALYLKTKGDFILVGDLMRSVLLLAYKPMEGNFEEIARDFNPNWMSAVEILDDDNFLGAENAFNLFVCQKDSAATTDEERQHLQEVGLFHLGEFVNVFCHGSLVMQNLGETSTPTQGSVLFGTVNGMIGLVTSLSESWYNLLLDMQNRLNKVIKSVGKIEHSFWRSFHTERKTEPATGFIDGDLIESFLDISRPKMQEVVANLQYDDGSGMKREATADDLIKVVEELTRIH
Description: (§1) We determined the concentration of both kinases and CRBN, the latter in order to control the expression of the corresponding ligase. Since IMiDs, such as pomalidomide, cause the degradation of the lymphoid transcription factors Ikaros (IKZF1) and Aiolos (IKZF3) through the involvement of CRBN,[53],[54] this undesired effect was inspected. […] As further characteristics of CDK4/6d, the desired selectivity of CDK6 over CDK4 degradation and the unwanted influence on the IKZF1 concentration were determined. […] Next, we determined the concentration- and time-dependent activity of 11 (Fig. S2, ESI ^†).
(§2) Multiple myeloma, leukaemia, and murine cell lines:
(§3) After respective designated treatments, cells were washed with 1× PBS and lysed in IP lysis buffer (Pierce) containing HALT protease and phosphatase inhibitor cocktail (Thermo Scientific). Sodium dodecyl sulfate-polyacrylamide gel electrophoresis (SDS-PAGE) was performed with 5–20 µg of protein loaded per sample. Gel electrophoresis was carried out at a constant voltage. Proteins were transferred onto Immobilon-P transfer membranes (Millipore). Membranes were blocked with 5% milk in Tris Buffered Saline with 0.05% Tween 20 (TBS-T) followed by overnight incubation at 4 °C with shaking in primary antibodies diluted in 5% BSA in TBS-T. After incubation with respective secondary HRP-conjugated antibodies diluted in 5% milk in TBST, detection of proteins was performed using either WesternBright ECL HRP substrate or WesternBright Sirius HRP substrate (Advansta). Chemiluminescence was detected with ChemiDoc™ XRS+ System (Bio-Rad). For further detection of other proteins on the same membrane, membranes were subjected to incubation in Restore Western Blot Stripping Buffer, followed by re-blocking, and further probing of proteins was […]

[2] = target: T2, CDK6 (Homo sapiens, UniProt Q00534); test: CDK6 degradation, western blot of MM.1S cells; format: cell-based; conditions: 16 h
T2 construct: Percentage values are normalized to DMSO-treated MM.1S cells and the respective loading controls; endogenous in cells; host or cells: MM.1S (human multiple myeloma)
T2 sequence (Q00534 whole entry): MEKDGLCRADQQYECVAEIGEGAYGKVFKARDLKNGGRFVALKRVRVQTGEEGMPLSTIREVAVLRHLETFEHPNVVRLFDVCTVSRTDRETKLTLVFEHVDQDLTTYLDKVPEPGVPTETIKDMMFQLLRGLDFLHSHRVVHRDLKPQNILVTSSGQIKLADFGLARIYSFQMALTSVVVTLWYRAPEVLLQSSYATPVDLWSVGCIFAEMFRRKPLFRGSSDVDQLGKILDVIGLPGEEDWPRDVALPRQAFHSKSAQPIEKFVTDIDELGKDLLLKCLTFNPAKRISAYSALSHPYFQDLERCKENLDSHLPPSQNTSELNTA
Description: as §1, §2, §3

[3] = target: T3, CDK4 (Homo sapiens, UniProt P11802); test: CDK4 degradation, western blot of MM.1S cells; format: cell-based; conditions: 16 h; for Effect of MDM2 ligands on CDK4 levels: indicated concentrations
T3 construct: Percentage values are normalized to DMSO-treated MM.1S cells and the respective loading controls; endogenous in cells; host or cells: MM.1S (human multiple myeloma)
T3 sequence (P11802 whole entry): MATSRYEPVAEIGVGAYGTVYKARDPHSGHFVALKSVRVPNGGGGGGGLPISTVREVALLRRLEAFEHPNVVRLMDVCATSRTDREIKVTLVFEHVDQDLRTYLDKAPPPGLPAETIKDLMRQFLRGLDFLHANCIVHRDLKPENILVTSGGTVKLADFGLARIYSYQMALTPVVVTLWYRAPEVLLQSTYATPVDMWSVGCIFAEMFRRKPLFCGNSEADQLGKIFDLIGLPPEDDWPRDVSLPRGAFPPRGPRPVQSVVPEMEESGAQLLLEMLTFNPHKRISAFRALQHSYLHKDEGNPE
Description: as §1, §2, §3

[4] = elog D7.4 by chromatographic (HPLC) method; format: physicochemical; conditions: Polaris C18-A column, pH 7.4, read-out: elog D7.4 (experimental distribution coefficient at pH 7.4)
Protocol: Supplementary Information: Physical Chemistry
N. Molecular Descriptor Calculation […]
O. Physicochemical Measurements
The determination of the elog D7.4 values was performed by a chromatographic method according to […]
The column was a Polaris C18-A column (2 mm I.D., 50 mm length, 3 μm particle size) from Agilent Technologies. A linear mobile phase gradient was applied with […] TRIS buffer adjusted to pH 7.4 and MeCN. Therefore, the gradient was run from 5% […]
between the runs with a constant flow-rate of 0.8 ml/min and a temperature of 25 °C. The output wavelength of the detector was set to 269.5 nm. In order to calibrate the log D7.4 to the retention time, 6 different drugs with known log D7.4 were dissolved in DMSO and 10 µl were injected […]
Approximately 1 mg of the samples was dissolved in DMSO and 5 µl were injected. Analyses were conducted in duplicates. Subsequently, the mean retention times of the analytes were taken to calculate their log D7.4 values with aid of the calibration line.

[5] = MM1.S, 0.1 μM, MM.1S cells, normalized to DMSO (100%), read-out: D CDK6: remaining CDK6 levels
[6] = MM1.S, 0.1 μM, MM.1S cells, normalized to DMSO (100%), read-out: D CDK4: remaining CDK4 levels
[7] = 1 μM, MM.1S cells, normalized to DMSO (100%)

Row | Compound | remaining activity at 0.1 µM [1] | Selectivity ratio D CDK4/D CDK6 for the degradation of CDK6 over CDK4 ([2]; 0.1 μM, MM.1S cells) | remaining activity at 0.1 µM [2, 5] | remaining activity at 0.1 µM [3, 6] | chromatographic logD [4] | further results
1 | CC(=O)c1c(C)c2cnc(Nc3ccc(N4CCN(C(=O)CCC(=O)NCCCOCCCCOCCCNc5cccc6c5C(=O)N(C5CCC(=O)NC5=O)C6=O)CC4)cn3)nc2n(C2CCCC2)c1=O (stereo not drawn) [compound 15] | 56% | 1.4 | 65% | 91% | 3.1 | –
2 | CC(=O)c1c(C)c2cnc(Nc3ccc(N4CCN(CCOCCOCCOCC(=O)N[C@H](C(=O)N5C[C@H](O)C[C@H]5C(=O)NCc5ccc(-c6scnc6C)cc5)C(C)(C)C)CC4)cn3)nc2n(C2CCCC2)c1=O [compound 24] | – | 5.7 | 14% | 80% | 3.5 | –
3 | CC(=O)c1c(C)c2cnc(Nc3ccc(N4CCN(CCCCCCCCOc5cc(-c6scnc6C)ccc5CNC(=O)[C@@H]5C[C@@H](O)CN5C(=O)[C@H](C(C)C)N5Cc6ccccc6C5=O)CC4)cn3)nc2n(C2CCCC2)c1=O [compound 28] | – | – | 62% | > 95% | 4.5 | –
4 | CC(=O)c1c(C)c2cnc(Nc3ccc(N4CCN(CCCCCCOCCCCCOCCCCC(=O)N[C@H](C(=O)N5C[C@H](O)C[C@H]5C(=O)NCc5ccc(-c6scnc6C)cc5)C(C)(C)C)CC4)cn3)nc2n(C2CCCC2)c1=O [compound 25] | – | – | 40% | > 95% | 4.8 | –
5 | COc1cc(C(=O)O)ccc1NC(=O)[C@@H]1N[C@@H](CC(C)(C)C)[C@](C#N)(c2ccc(Cl)cc2F)[C@H]1c1cccc(Cl)c1F [6 (Idasanutlin), idasanutlin, reference compound] | – | 0.9 | 83% | 78% | – | remaining activity at 1 µM ([2]; MM1.S, 1 μM, MM.1S cells, normalized to DMSO (100%), read-out: D CDK6: remaining CDK6 levels): 70%; remaining activity at 1 µM ([3]; MM1.S, 1 μM, MM.1S cells, normalized to DMSO (100%), read-out: D CDK4: remaining CDK4 levels): 40%; Effect of MDM2 ligands on CDK4 levels ([3]; MM.1S cells): dose-dependent effects on CDK4 levels
6 | CC(=O)c1c(C)c2cnc(Nc3ccc(N4CCN(C(=O)CCCCCNc5cccc6c5C(=O)N(C5CCC(=O)N(C)C5=O)C6=O)CC4)cn3)nc2n(C2CCCC2)c1=O (stereo not drawn) [compound 21] | 93% | – | > 95% | 95% | 3.6 | –
7 | CN[C@H](C)C(=O)N[C@H](C(=O)N1C[C@@H](Oc2cccc(OCCOCCOCCOCCN3CCN(c4ccc(Nc5ncc6c(C)c(C(C)=O)c(=O)n(C7CCCC7)c6n5)nc4)CC3)c2)C[C@H]1C(=O)N[C@@H]1CCCc2ccccc21)C1CCCCC1 [compound 36] | – | – | – | – | 4.5 | D CDK6: remaining CDK6 levels [2, 7]: failed to degrade; remaining activity at 0.1 µM ([2]; MM1.S, read-out: D CDK6: remaining CDK6 levels): > 95%; D CDK4: remaining CDK4 levels [3, 7]: failed to degrade; remaining activity at 0.1 µM ([3]; MM1.S, read-out: D CDK4: remaining CDK4 levels): > 95%
8 | CC(=O)c1c(C)c2cnc(Nc3ccc(N4CCN(CCOCCOCC(=O)N[C@H](C(=O)N5C[C@H](O)C[C@H]5C(=O)NCc5ccc(-c6scnc6C)cc5)C(C)(C)C)CC4)cn3)nc2n(C2CCCC2)c1=O [compound 23] | – | 7.4 | 8.2% | 61% | 2.7 | –
9 | CC(=O)c1c(C)c2cnc(Nc3ccc(N4CCN(C(=O)COCCOCCOCCNc5cccc6c5C(=O)N(C5CCC(=O)NC5=O)C6=O)CC4)cn3)nc2n(C2CCCC2)c1=O (stereo not drawn) [compound 13] | 1% | 1.9 | 7.7% | 15% | 2.8 | –
10 | CC(=O)c1c(C)c2cnc(Nc3ccc(N4CCN(C(=O)CCCCCOCCCCOCCCCOCCCCOCCCCCCNc5cccc6c5C(=O)N(C5CCC(=O)NC5=O)C6=O)CC4)cn3)nc2n(C2CCCC2)c1=O (stereo not drawn) [compound 19] | 35% | – | 51% | > 95% | 5.4 | –
11 | CC(=O)c1c(C)c2cnc(Nc3ccc(N4CCN(C(=O)CCCCCOCCOCCOCCOCCOCCOCCCCCCNc5cccc6c5C(=O)N(C5CCC(=O)NC5=O)C6=O)CC4)cn3)nc2n(C2CCCC2)c1=O (stereo not drawn) [compound 20] | 5.8% | 5.4 | 16% | 86% | 3.7 | –
12 | CC(=O)c1c(C)c2cnc(Nc3ccc(N4CCN(C(=O)CCCCOCCOCCOCCNc5cccc6c5C(=O)N(C5CCC(=O)NC5=O)C6=O)CC4)cn3)nc2n(C2CCCC2)c1=O (stereo not drawn) [compound 14] | 0.8% | 3.3 | 7.8% | 26% | 3.1 | –
13 | CC(=O)c1c(C)c2cnc(Nc3ccc(N4CCN(CCOCCOCCOCCOc5cc(-c6scnc6C)ccc5CNC(=O)[C@@H]5C[C@@H](O)CN5C(=O)[C@H](C(C)C)N5Cc6ccccc6C5=O)CC4)cn3)nc2n(C2CCCC2)c1=O [compound 30] | – | 1.4 | 69% | 94% | 3.1 | –
14 | CC(=O)c1c(C)c2cnc(Nc3ccc(N4CCN(CCOCCOCCOc5cc(-c6scnc6C)ccc5CNC(=O)[C@@H]5C[C@@H](O)CN5C(=O)[C@@H](NC(=O)C5(C#N)CC5)C(C)(C)C)CC4)cn3)nc2n(C2CCCC2)c1=O [compound 33] | – | 46 | 1.4% | 65% | 3 | –
15 | CC(=O)c1c(C)c2cnc(Nc3ccc(N4CCN(C(=O)CCCCCOCCCCOCCCCOCCCCNc5cccc6c5C(=O)N(C5CCC(=O)NC5=O)C6=O)CC4)cn3)nc2n(C2CCCC2)c1=O (stereo not drawn) [compound 18] | 5.9% | 3.4 | 17% | 57% | 4.4 | –
16 | CC(=O)c1c(C)c2cnc(Nc3ccc(N4CCN(CCCCCCOCCCCCOCCCCCOc5cc(-c6scnc6C)ccc5CNC(=O)[C@@H]5C[C@@H](O)CN5C(=O)[C@H](C(C)C)N5Cc6ccccc6C5=O)CC4)cn3)nc2n(C2CCCC2)c1=O [compound 31] | – | – | 65% | > 95% | 5.3 | –
17 | CC(=O)c1c(C)c2cnc(Nc3ccc(N4CCN(C(=O)CCCCCOCCCCCCOCCCCCCNc5cccc6c5C(=O)N(C5CCC(=O)NC5=O)C6=O)CC4)cn3)nc2n(C2CCCC2)c1=O (stereo not drawn) [compound 17] | 18% | 1.7 | 51% | 86% | 5.2 | –
18 | Nc1cccc2c1C(=O)N(C1CCC(=O)NC1=O)C2=O (stereo not drawn) [3 (POM), pomalidomide, reference compound] | – | – | 91% | 91% | – | D IKZF1: remaining IKZF1 levels ([1]; 0.1 μM): 17%
19 | CC(=O)c1c(C)c2cnc(Nc3ccc(N4CCN(CCOCCOCCOc5cc(-c6scnc6C)ccc5CNC(=O)[C@@H]5C[C@@H](O)CN5C(=O)[C@H](C(C)C)N5Cc6ccccc6C5=O)CC4)cn3)nc2n(C2CCCC2)c1=O [compound 29] | – | – | 29% | > 95% | 3.2 | –
20 | CC(C)[C@@H](CS(=O)(=O)C(C)C)N1C(=O)[C@@](C)(CC(=O)O)C[C@H](c2cccc(Cl)c2)[C@H]1c1ccc(Cl)cc1 [AMG232, reference compound] | – | – | – | – | – | Effect of MDM2 ligands on CDK4 levels ([3]; MM.1S cells): diminished CDK4 levels in a dose-dependent manner
